# Measured values taken from paper PMC8474115 (Journal of Medicinal Chemistry, 2021).
# Structures can show the parent of a compound that is named as a salt. Where two headings read alike, the source gives them in different places.
# How the values were obtained:
# [1] = target: T1, Endothelin ETA (Homo sapiens, UniProt P25101); assay: Eurofins SafetyScreen panel; format: binding
# T1 construct: purchased Eurofins (Panlabs) SafetyScreen87 Panel
# [2] = target: Ca Channel L-Type, Benzothiazepine (Rattus norvegicus, UniProt P22002); assay: Eurofins SafetyScreen panel; format: binding
# [3] = target: Ca Channel L-Type, Dihydropyridine (Rattus norvegicus, UniProt P22002); assay: Eurofins SafetyScreen panel; format: binding
# [4] = target: T2, Opiate μ (OP3, MOP) (Homo sapiens, UniProt P35372); assay: Eurofins SafetyScreen panel; format: binding
# T2 construct: Eurofins (contract assay)
# [5] = target: T3, Potassium Channel [hERG] (Homo sapiens, UniProt Q12809); assay: biochemical
# [6] = target: T4, Serotonin 5-HT4 (Cavia porcellus, UniProt O70528); assay: Eurofins SafetyScreen panel; format: binding, guinea pig
# T4 construct: Eurofins (contract assay) 272000
# [7] = target: T5, GABAB1A (Homo sapiens, UniProt Q9UBS5); assay: Eurofins SafetyScreen panel; format: binding
# T5 construct: purchased Eurofins (Panlabs) SafetyScreen87 Panel
# [8] = target: T6, Dopamine D3 (Homo sapiens, UniProt P35462); assay: Eurofins SafetyScreen panel; format: binding
# T6 construct: Eurofins (contract screening) 219800
# [9] = target: T7, Serotonin 5-HT2B (Homo sapiens, UniProt P41595); assay: Eurofins SafetyScreen panel; format: binding
# T7 construct: Eurofins (contract assay)
# [10] = target: T8, MAO-B (Homo sapiens, UniProt P27338); assay: Eurofins SafetyScreen panel; format: biochemical
# T8 construct: Eurofins
# [11] = target: T9, Melanocortin MC1 (Homo sapiens, UniProt Q01726); assay: Eurofins SafetyScreen panel; format: binding
# T9 construct: purchased Eurofins (Panlabs) SafetyScreen87 Panel
# [12] = target: T10, Opiate κ (OP2, KOP) (Homo sapiens, UniProt P41145); assay: Eurofins SafetyScreen panel; format: binding
# T10 construct: Eurofins (contract assay)
# [13] = target: h5-HT1A (Homo sapiens, UniProt P08908); conditions: 5-HT1AR
# Protocol: For membrane preparation, cells after reaching 90% confluence, were washed with phosphate-buffered saline (PBS), and pelleted by centrifugation (200 × g) in PBS containing 0.1 mM EDTA and 1 mM dithiothreitol.
# The total reaction volume was 200 μL. The incubation process was terminated by filtration through UniFilter-96 (PerkinElmer) plates with the FilterMate Universal Harvester (PerkinElmer, #C961962), and radioactivity retained on the filters was quantified on a MicroBeta counter for radiometric detection (PerkinElmer). […] To evaluate the level of nonspecific signal 10 μM of 5-HT for 5-HT1AR and 5-HT7R, 20 μM of mianserin for 5-HT2AR, 10 μM of methiothepine for 5-HT6R and 10 μM of haloperidol for D2LR were used. […] The acquired results were presented as the mean of at least two independent experiments.
# [14] = target: T11, Adrenergic α1D (Homo sapiens, UniProt P25100); assay: Eurofins SafetyScreen panel; format: binding
# T11 construct: Eurofins (contract screening, SafetyScreen panel) PP223
# [15] = target: T12, Adrenergic α2A (Homo sapiens, UniProt P08913); assay: Eurofins SafetyScreen panel; format: binding
# T12 construct: Eurofins (contract screening, SafetyScreen panel) PP223
# T12 sequence (P08913 1-465): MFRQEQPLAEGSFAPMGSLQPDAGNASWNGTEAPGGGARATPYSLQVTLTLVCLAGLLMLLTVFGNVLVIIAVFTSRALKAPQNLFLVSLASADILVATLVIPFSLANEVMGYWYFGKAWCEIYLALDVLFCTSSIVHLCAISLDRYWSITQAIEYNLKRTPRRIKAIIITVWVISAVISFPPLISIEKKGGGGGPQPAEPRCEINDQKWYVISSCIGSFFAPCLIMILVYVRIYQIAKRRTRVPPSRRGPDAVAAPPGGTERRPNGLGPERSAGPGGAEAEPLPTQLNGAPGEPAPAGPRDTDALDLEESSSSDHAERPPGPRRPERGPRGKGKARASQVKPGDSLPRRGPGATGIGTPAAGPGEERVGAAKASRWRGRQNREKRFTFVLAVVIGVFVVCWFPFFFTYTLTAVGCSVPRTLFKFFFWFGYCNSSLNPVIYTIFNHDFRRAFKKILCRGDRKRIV
# [16] = target: T13, Angiotensin AT1 (Homo sapiens, UniProt P30556); assay: Eurofins SafetyScreen panel; format: binding
# T13 construct: Eurofins (contract screening, SafetyScreen panel) PP223
# [17] = target: T14, Tachykinin NK1 (Homo sapiens, UniProt P25103); assay: Eurofins SafetyScreen panel; format: binding
# T14 construct: Eurofins (contract assay)
# [18] = target: T15, Adrenergic α1A (Rattus norvegicus, UniProt P43140); assay: Eurofins SafetyScreen panel; format: binding
# T15 construct: Eurofins (contract screening, SafetyScreen panel) PP223
# [19] = target: T16, Bradykinin B2 (Homo sapiens, UniProt P30411); assay: Eurofins SafetyScreen panel; format: binding
# T16 construct: Eurofins (contract screening, SafetyScreen panel) PP223
# [20] = target: T17, Serotonin 5-HT1B (Homo sapiens, UniProt P28222); assay: Eurofins SafetyScreen panel; format: binding
# T17 construct: Eurofins (contract assay)
# [21] = target: T18, Histamine H2 (Homo sapiens, UniProt P25021); assay: Eurofins SafetyScreen panel; format: binding
# T18 construct: purchased Eurofins (Panlabs) SafetyScreen87 Panel
# [22] = target: T3, Potassium Channel [hERG]; assay: Eurofins SafetyScreen panel
# [23] = target: Glutamate NMDA, Glycine (Rattus norvegicus, UniProt P35439); assay: Eurofins SafetyScreen panel; format: binding
# [24] = target: T19, Dopamine D2S (Homo sapiens, UniProt P14416); assay: Eurofins SafetyScreen panel; format: binding
# T19 construct: purchased Eurofins (Panlabs) SafetyScreen87 Panel
# [25] = target: T20, Progesterone PR-B (Homo sapiens, UniProt P06401); assay: Eurofins SafetyScreen panel; format: binding
# T20 construct: Eurofins (contract assay)
# [26] = read-out: %inh, 10 μM, additional batch
# T2 sequence (P35372 whole entry): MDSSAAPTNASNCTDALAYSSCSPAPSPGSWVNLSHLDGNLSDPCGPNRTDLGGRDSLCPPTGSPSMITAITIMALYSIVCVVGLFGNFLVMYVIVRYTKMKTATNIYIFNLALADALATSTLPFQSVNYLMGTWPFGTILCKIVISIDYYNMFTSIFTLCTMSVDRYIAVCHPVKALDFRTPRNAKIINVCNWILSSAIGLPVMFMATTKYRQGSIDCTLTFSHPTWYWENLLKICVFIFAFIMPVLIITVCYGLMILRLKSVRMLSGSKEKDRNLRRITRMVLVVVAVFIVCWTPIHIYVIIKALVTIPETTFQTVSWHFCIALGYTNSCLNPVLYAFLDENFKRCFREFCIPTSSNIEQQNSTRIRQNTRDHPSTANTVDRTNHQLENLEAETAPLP
# T7 sequence (P41595 whole entry): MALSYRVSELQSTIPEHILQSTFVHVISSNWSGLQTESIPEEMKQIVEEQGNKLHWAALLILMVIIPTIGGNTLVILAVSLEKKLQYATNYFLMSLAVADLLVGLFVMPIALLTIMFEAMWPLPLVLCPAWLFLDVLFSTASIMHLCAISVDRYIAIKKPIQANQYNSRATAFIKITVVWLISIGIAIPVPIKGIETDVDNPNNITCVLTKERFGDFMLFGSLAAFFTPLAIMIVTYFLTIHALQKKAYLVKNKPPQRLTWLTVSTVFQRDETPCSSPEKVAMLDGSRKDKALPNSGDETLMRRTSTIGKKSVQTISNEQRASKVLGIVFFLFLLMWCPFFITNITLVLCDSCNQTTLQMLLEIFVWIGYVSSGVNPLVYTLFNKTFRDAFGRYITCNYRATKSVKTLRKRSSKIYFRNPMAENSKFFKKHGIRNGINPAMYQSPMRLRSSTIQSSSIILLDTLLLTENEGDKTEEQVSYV
# T6 sequence (P35462 whole entry): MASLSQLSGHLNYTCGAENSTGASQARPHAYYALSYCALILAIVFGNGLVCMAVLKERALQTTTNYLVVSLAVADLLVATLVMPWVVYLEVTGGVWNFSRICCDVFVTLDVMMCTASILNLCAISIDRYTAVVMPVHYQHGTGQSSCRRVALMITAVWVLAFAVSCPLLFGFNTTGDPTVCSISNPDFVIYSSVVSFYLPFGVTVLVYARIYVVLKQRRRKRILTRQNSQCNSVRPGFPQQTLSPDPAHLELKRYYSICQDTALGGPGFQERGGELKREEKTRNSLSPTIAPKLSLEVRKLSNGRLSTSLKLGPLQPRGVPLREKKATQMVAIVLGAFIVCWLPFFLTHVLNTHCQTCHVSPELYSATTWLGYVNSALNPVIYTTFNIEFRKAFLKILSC
# T17 sequence (P28222 whole entry): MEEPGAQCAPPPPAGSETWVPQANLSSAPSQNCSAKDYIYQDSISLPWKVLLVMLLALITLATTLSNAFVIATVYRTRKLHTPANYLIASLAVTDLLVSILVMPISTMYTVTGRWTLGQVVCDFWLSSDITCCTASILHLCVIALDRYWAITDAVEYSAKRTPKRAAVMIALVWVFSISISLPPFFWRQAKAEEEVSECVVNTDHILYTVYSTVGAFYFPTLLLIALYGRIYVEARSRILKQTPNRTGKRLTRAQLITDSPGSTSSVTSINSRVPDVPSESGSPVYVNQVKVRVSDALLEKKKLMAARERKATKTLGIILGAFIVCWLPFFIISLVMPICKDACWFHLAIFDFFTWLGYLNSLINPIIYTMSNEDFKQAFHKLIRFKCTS
# T14 sequence (P25103 whole entry): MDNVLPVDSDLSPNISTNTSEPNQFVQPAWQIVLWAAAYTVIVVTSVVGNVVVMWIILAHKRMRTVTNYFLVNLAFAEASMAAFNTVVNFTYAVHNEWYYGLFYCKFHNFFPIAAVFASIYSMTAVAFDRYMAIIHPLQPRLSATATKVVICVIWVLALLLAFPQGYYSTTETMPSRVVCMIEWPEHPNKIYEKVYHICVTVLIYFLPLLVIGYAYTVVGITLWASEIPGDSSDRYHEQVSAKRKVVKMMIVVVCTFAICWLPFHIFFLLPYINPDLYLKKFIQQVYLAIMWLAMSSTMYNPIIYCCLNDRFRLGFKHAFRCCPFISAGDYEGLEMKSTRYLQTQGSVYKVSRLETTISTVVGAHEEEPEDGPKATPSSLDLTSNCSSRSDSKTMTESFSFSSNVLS
# T10 sequence (P41145 whole entry): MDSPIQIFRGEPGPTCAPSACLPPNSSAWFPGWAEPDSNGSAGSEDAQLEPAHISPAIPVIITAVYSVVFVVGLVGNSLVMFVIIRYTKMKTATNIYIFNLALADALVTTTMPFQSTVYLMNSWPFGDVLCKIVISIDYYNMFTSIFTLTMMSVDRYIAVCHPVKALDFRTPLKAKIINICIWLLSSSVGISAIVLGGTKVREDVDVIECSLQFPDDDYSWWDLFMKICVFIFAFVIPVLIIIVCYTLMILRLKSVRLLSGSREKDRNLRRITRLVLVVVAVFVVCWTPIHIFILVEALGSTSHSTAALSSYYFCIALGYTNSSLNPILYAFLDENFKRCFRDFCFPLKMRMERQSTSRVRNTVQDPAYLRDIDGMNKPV
# Chain of Ca Channel L-Type, Benzothiazepine (P22002 whole entry): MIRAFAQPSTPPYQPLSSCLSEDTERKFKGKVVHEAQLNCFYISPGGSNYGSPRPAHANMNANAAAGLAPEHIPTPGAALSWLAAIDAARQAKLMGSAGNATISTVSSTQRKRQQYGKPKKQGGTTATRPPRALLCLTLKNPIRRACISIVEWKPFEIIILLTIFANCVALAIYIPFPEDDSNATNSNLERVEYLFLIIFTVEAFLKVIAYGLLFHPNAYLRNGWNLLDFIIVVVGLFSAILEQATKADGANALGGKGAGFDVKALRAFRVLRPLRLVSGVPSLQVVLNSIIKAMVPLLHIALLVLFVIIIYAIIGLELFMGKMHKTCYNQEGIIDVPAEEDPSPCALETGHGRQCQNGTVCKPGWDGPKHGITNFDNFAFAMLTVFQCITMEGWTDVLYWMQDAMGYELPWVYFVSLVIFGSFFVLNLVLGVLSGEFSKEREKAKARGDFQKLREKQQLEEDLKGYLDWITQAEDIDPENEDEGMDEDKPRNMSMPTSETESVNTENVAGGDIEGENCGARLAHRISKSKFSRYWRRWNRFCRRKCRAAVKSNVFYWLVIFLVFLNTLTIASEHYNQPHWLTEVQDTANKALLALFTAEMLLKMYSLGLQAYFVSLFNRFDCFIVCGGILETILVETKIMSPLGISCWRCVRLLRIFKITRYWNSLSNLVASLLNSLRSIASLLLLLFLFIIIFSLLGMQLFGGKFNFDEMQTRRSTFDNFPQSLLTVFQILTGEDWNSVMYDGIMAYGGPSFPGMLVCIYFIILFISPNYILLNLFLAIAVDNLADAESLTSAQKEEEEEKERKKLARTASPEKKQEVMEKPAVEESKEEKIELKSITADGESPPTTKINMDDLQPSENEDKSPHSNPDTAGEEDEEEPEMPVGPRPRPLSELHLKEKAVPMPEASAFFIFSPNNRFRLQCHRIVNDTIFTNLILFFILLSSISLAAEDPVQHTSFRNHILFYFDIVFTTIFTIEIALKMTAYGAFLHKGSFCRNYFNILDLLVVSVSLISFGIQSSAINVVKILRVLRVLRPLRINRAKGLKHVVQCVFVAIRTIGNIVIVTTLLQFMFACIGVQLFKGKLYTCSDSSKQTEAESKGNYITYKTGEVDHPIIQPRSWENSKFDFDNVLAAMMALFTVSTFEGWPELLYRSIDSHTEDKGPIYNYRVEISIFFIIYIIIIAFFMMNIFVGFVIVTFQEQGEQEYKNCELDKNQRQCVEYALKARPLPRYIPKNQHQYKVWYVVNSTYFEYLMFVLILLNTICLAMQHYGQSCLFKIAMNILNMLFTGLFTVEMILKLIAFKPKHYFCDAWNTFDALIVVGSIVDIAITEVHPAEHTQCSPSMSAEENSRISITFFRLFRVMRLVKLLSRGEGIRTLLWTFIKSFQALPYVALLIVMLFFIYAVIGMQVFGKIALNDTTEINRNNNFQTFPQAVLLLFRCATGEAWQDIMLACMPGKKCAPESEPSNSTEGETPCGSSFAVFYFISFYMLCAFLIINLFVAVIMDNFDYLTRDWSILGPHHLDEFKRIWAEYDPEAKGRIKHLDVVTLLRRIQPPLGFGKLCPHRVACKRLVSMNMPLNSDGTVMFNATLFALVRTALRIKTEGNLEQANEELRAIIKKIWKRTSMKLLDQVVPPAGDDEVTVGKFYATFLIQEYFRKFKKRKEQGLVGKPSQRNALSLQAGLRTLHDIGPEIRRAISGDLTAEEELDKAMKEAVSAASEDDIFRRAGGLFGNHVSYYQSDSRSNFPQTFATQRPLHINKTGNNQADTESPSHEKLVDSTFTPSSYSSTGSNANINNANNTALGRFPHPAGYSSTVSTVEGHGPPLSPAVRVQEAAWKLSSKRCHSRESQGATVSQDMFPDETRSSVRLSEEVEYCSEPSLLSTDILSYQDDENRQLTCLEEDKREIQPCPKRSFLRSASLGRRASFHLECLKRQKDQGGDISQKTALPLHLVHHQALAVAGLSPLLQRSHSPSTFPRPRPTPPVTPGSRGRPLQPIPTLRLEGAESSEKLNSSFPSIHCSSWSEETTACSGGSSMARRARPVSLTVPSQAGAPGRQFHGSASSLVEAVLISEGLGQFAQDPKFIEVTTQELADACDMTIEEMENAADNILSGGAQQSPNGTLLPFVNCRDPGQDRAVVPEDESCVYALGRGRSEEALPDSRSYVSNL
# Chain of Ca Channel L-Type, Dihydropyridine (P22002 whole entry): as above
# T13 sequence (P30556 whole entry): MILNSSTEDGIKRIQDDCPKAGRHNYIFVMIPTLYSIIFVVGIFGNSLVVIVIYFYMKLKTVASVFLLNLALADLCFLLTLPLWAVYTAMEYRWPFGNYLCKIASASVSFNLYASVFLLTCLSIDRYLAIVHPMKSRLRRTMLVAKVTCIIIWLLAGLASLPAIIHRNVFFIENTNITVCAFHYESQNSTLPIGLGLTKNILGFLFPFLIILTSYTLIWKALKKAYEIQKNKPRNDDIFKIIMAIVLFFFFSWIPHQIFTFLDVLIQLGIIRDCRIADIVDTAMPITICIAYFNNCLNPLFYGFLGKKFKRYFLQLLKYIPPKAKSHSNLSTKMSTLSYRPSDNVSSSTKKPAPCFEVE
smiles,measurement,setting,value
"O=S(=O)(c1cccc(F)c1)n1ccc2c(N3CCNCC3)nc3ccccc3c21 [FPPQ, 1-[(3-Fluorophenyl)sulfonyl]-4-(piperazin-1-yl)-1H-pyrrolo[3,2-c]quinoline dihydrochloride]",inhibition at 10 µM,[1],3%
same,inhibition at 0.01 µM,[2]; 10 nM,-3%
same,inhibition at 1 µM,[2]; 1 μM,46%
same,inhibition at 10 µM,[2],83%
same,inhibition at 10 µM,[2]; additional batch,92%
same,inhibition at 0.01 µM,[3]; 10 nM,-4%
same,inhibition at 0.1 µM,[3]; 0.1 μM,3%
same,inhibition at 1 µM,[3]; 1 μM,60%
same,inhibition at 10 µM,[3],89%
same,inhibition at 10 µM,[3]; additional batch,78%
same,IC50,[4],7080 nM
same,inhibition at 0.1 µM,"[4]; read-out: %inh, 0.1 μM",3%
same,inhibition at 10 µM,"[4]; read-out: %inh, 10 μM",59%
same,inhibition at 10 µM,[4]; [26],61%
same,inhibition at 100 µM,"[4]; read-out: %inh, 100 μM",97%
same,IC50,[5],1150 nM
same,inhibition at 10 µM,[6],30%
same,inhibition at 10 µM,[7],13%
same,IC50,[8],630 nM
same,Ki,[8],210 nM
same,inhibition at 0.01 µM,"[8]; read-out: %inh, 10 nM",-2%
same,inhibition at 0.1 µM,"[8]; read-out: %inh, 0.1 μM",14%
same,inhibition at 1 µM,"[8]; read-out: %inh, 1 μM",63%
same,inhibition at 10 µM,"[8]; read-out: %inh, 10 μM",89%
same,inhibition at 10 µM,[8]; [26],90%
same,IC50,[9],260 nM
same,Ki,[9],170 nM
same,inhibition at 0.01 µM,"[9]; read-out: %inh, 10 nM",13%
same,inhibition at 0.1 µM,"[9]; read-out: %inh, 0.1 μM",31%
same,inhibition at 1 µM,"[9]; read-out: %inh, 1 μM",71%
same,inhibition at 10 µM,"[9]; read-out: %inh, 10 μM",96%
same,inhibition at 10 µM,[9]; [26],97%
same,inhibition at 10 µM,[10],21%
same,inhibition at 10 µM,[11],10%
same,IC50,[12],8180 nM
same,Ki,[12],3270 nM
same,inhibition at 0.1 µM,"[12]; read-out: %inh, 0.1 μM",5%
same,inhibition at 1 µM,"[12]; read-out: %inh, 1 μM",8%
same,inhibition at 10 µM,"[12]; read-out: %inh, 10 μM",55%
same,inhibition at 10 µM,[12]; [26],64%
same,inhibition at 100 µM,"[12]; read-out: %inh, 100 μM",99%
same,Ki,[13],437 nM
same,inhibition at 10 µM,[14],24%
same,IC50,[15],220 nM
same,Ki,[15],110 nM
same,inhibition at 0.01 µM,"[15]; read-out: %inh, 10 nM",5%
same,inhibition at 0.1 µM,"[15]; read-out: %inh, 0.1 μM",32%
same,inhibition at 1 µM,"[15]; read-out: %inh, 1 μM",80%
same,inhibition at 10 µM,"[15]; read-out: %inh, 10 μM",97%
same,inhibition at 10 µM,[15]; [26],98%
same,inhibition at 10 µM,[16],-4%
same,IC50,[17],13700 nM
same,Ki,[17],9920 nM
same,inhibition at 0.1 µM,[17]; 0.1 μM,0%
same,inhibition at 1 µM,[17]; 1 μM,10%
same,inhibition at 10 µM,[17],40%
same,inhibition at 10 µM,[17]; additional batch,58%
same,inhibition at 100 µM,[17]; 100 μM,92%
same,inhibition at 10 µM,[18],34%
same,inhibition at 10 µM,[19],0%
same,IC50,[20],1170 nM
same,Ki,[20],890 nM
same,inhibition at 0.01 µM,"[20]; read-out: %inh, 10 nM",5%
same,inhibition at 0.1 µM,"[20]; read-out: %inh, 0.1 μM",4%
same,inhibition at 1 µM,"[20]; read-out: %inh, 1 μM",47%
same,inhibition at 10 µM,"[20]; read-out: %inh, 10 μM",90%
same,inhibition at 10 µM,[20]; [26],92%
same,inhibition at 10 µM,[21],45%
same,Ki,[22],940 nM
same,inhibition at 10 µM,[23],-1%
same,inhibition at 10 µM,[24],46%
same,inhibition at 10 µM,[25],21%
